Source: patent publication US6682892B2, “Method for treating herpes viruses” (priority 2000, dated 2004)

How the values were obtained:
Type in all cases: cell-based
HSV-2 186 = experiment: Plaque reduction assay, HSV-2 186; conditions: Table 1, plaque reduction, Vero cells
Protocol: (§1) Antiviral activity of compounds against herpesviruses such as HSV-1, HSV-2, or HCMV can be measured using plaque reduction assays. 0.1 ml of media containing approximately 50 PFU of virus is added to each well of a 24-well cell culture dish containing a confluent monolayer of cells (Vero cells for HSV-1 and HSV-2, HFF cells for HCMV). Compounds are dissolved in 100% DMSO and diluted in 100% DMSO as 200× stocks of the desired final drug concentration. Typically 5-6 two-fold dilutions are prepared for each compound. Dilutions of compounds are then added to media containing 0.8% CMC resulting in a final 1× drug concentration. After the virus-infected cells have incubated for 1 h at 37° C., the virus innoculum is removed and 1 ml of media containing 0.8% CMC and the various concentrations of compound is added to each well of the dish. The dish is incubated at 37° C. for approximately 2-3 days (HSV-1 and HSV-2) or 6-9 days (HCMV) to allow sufficient growth of virus to form plaques in the cell monolayer. Plaques can be observed and counted microscopically or by staining the cells with 0.1% crystal violet in 20% ethanol. […] Antiviral activity of a compound is expressed as the concentration of compound predicted to reduce the number of plaques in a well by 50% (IC50). The IC50 values are calculated by plotting the per cent inhibition vs. concentration of compound using EXCEL software for linear regression.
(§2) A panel of viruses consisting of four strains of HSV-1 (KOS, F, DJL, Patton) and three strains of HSV-2 (MS, 35D, 186) are tested in a plaque reduction assay against four different 4-oxo-DHQ compounds (#1, 2, 4, 5 as shown in FIG. 1), and one 4-oxo-DHTP compound (#3 as shown in FIG. 1) and against Acyclovir. The six drugs inhibited replication of the seven virus strains with IC50 values ranging from 2-10 μM (Table 1). In order to select for 4-oxo-DHQ resistant mutants, HSV-1 strains KOS, F, and DJL along with HSV-2 strains 186 and MS are serially passaged in the presence of 20 uM compound 1. Following the seventh passage, 4-oxo-DHQ resistant virus from each strain are plaque purified three times and high-titer stocks are made.

HSV-2 186-M1 (V828A) = experiment: Plaque reduction assay, 4-oxo-DHQ resistant HSV-2 186-M1; conditions: Table 2, mutant V828A
Protocol: Antiviral activity of compounds against herpesviruses such as HSV-1, HSV-2, or HCMV can be measured using plaque reduction assays. 0.1 ml of media containing approximately 50 PFU of virus is added to each well of a 24-well cell culture dish containing a confluent monolayer of cells (Vero cells for HSV-1 and HSV-2, HFF cells for HCMV). Compounds are dissolved in 100% DMSO and diluted in 100% DMSO as 200× stocks of the desired final drug concentration. Typically 5-6 two-fold dilutions are prepared for each compound. Dilutions of compounds are then added to media containing 0.8% CMC resulting in a final 1× drug concentration. After the virus-infected cells have incubated for 1 h at 37° C., the virus innoculum is removed and 1 ml of media containing 0.8% CMC and the various concentrations of compound is added to each well of the dish. The dish is incubated at 37° C. for approximately 2-3 days (HSV-1 and HSV-2) or 6-9 days (HCMV) to allow sufficient growth of virus to form plaques in the cell monolayer. Plaques can be observed and counted microscopically or by staining the cells with 0.1% crystal violet in 20% ethanol. […] The IC50 values are calculated by plotting the per cent inhibition vs. concentration of compound using EXCEL software for linear regression. […]

[1] = tested on: HCMV AD169-M1 (V823A, V824L); experiment: Plaque reduction assay, 4-oxo-DHQ resistant HCMV AD169-M1; conditions: Table 4, plaque reduction, resistant mutant; read-out: HCMV AD169 - M1 IC50
Protocol: as §1
A plasmid containing the wild-type HCMV polymerase gene is modified to contain the V823A or V823A and V824L mutations using a site-directed mutagenesis Kit (Stratagene Corp.) and following the manufactures's protocol. HFF cells are plated into T25 tissue culture flasks to achieve 80% confluency at the time of the transfection. Wild type HCMV AD 169 DNA and plasmid DNA containing the mutant HCMV polymerase gene are mixed at a ratio of 1:2 (2 ug of viral DNA to 4 ug of plasmid DNA). DNA's are transfected using superfect transfection reagent according to methods recommended by the manufacturer (Quiagen Inc.). Cells are harvested five days posttransfection, freeze-thawed to release virus and half of the sample is used to infect HFF cell monolayers. Cells are overlayed with media containing 20 uM 4-oxo-DHQ compound 2 (see FIG. 1). Serial passage is repeated seven times in the presence of 20 uM compound 2 and virus isolates are then plaque purified three times prior to preparation of viral stock.
In order to isolate an HCMV resistant mutant marker rescue experiments are done. Plasmids containing the mutant polymerase genes are transfected into HFF cells along with wild type HCMV AD169 DNA. The resulting virus is then serially passaged in the presence of 20 uM compound 1 (see FIG. 1). A 4-oxo-DHQ resistant virus is isolated from marker rescue studies done with the HCMV polymerase gene containing mutations that result in the V823A, V824L amino acid changes, but not with the gene containing V823A change alone.

HSV-2 MS = experiment: Plaque reduction assay, HSV-2 MS; conditions: Table 1, plaque reduction, Vero cells; read-out: IC50 (uM), HSV-2 MS
Protocol: as §1, §2

HSV-1 KOS-M1 (V823A) = experiment: Plaque reduction assay, 4-oxo-DHQ resistant HSV-1 KOS-M1; conditions: Table 2, mutant V823A; read-out: IC50 (uM), HSV-1 Kos-M1
Protocol: as §1
Vero cells are plated out at a density of 3.5×10^5 cells per well in a six well tissue culture plate. Cells are infected with HSV-1 KOS at a multiplicity of infection (moi) of 0.1 pfu/cell and 1 h post infection the cells are overlayed with 3 ml media containing 20 uM of a 4-oxo-DHQ. Cultures are incubated for 20 h at 37° C., freeze/thawed to release cell-associated virus, and 0.1 ml of culture is used to infect a new monolayer of Vero cells (one passage). Serial passage is repeated seven times in the presence of 20 uM drug. Virus isolates are then plaque purified three times prior to preparation of stocks. 4-oxo-DHQ resistant HSV-1 and HSV-2 may also be selected by the marker transfer method described below using wild-type HSV DNA and the corresponding mutant HSV polymerase gene.
as §2

HSV-1 DJL = experiment: Plaque reduction assay, HSV-1 DJL; conditions: Table 1, plaque reduction, Vero cells
Protocol: as §1, §2

Cn1cc(C(=O)NCc2ccc(Cl)cc2)c(=O)c2cc(/C=C\CO)cc(F)c21 [Compound 1] was tested, and the IC50 (HSV-2 186) was 2 µM, the IC50 (HSV-2 186-M1 (V828A)) was > 20 µM and the IC50 [1] was 4700 nM. The IC50 (HSV-2 MS) was 2 µM, the IC50 (HSV-1 KOS-M1 (V823A)) was > 20 µM and the IC50 (HSV-1 DJL) was 2.5 µM.
